Data from PubChem BioAssay (NCI).
Values joined by “and” are separate entries in the source; they are usually repeats but may differ in a detail not shown here. Equal values may be shown once.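 These data come from cells grown in 96-well plates and exposed to compound for 48 hours at five concentrations. Here, GI50 denotes the concentration required for 50% inhibition of growth. The concentration for full growth arrest is given as TGI.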

Assays:
Assay in all cases: inhibition of tumour cell growth, NCI panel, 48 h
HOP-92 NSCLC = tested on: HOP-92 NSCLC
NCI-H522 lung = tested on: NCI-H522 lung
OVCAR-3 ovarian = tested on: OVCAR-3 ovarian
SK-MEL-5 melanoma = tested on: SK-MEL-5 melanoma
KM12 colon = tested on: KM12 colon
UACC-257 melanoma = tested on: UACC-257 melanoma
HCT-116 colon = tested on: HCT-116 colon
U251 CNS = tested on: U251 CNS
SF-539 CNS = tested on: SF-539 CNS
OVCAR-4 ovarian = tested on: OVCAR-4 ovarian

Structure (SMILES) | GI50 (HOP-92 NSCLC) | TGI (HOP-92 NSCLC) | GI50 (NCI-H522 lung) | TGI (NCI-H522 lung) | GI50 (OVCAR-3 ovarian) | TGI (OVCAR-3 ovarian) | GI50 (SK-MEL-5 melanoma) | TGI (SK-MEL-5 melanoma) | GI50 (KM12 colon) | TGI (KM12 colon) | GI50 (UACC-257 melanoma) | TGI (UACC-257 melanoma) | GI50 (HCT-116 colon) | TGI (HCT-116 colon) | GI50 (U251 CNS) | TGI (U251 CNS) | GI50 (SF-539 CNS) | TGI (SF-539 CNS) | GI50 (OVCAR-4 ovarian) | TGI (OVCAR-4 ovarian)
CCCCCCCCCCCCOC1C(C(CC(=O)N2CCN(c3cccc(C(F)(F)F)c3)CC2)NS(=O)(=O)c2cc(Cl)cc(Cl)c2)OC2OC(C)(C)OC21 (configuration not stated) | > 100 µM | > 100 µM | > 100 µM | > 100 µM | > 100 µM | > 100 µM | > 100 µM | > 100 µM | > 100 µM | > 100 µM | > 100 µM | > 100 µM | > 100 µM | > 100 µM | > 100 µM | > 100 µM | > 100 µM | > 100 µM | > 100 µM | > 100 µM
Cc1ncsc1-c1ccc(CNC(=O)[C@@H]2C[C@@H](O)CN2C(=O)[C@@H](NC(=O)C2(C#N)CC2)C(C)(C)C)cc1 | 70.4 µM | > 100 µM | > 100 µM | > 100 µM | > 100 µM | > 100 µM | > 100 µM | > 100 µM | > 100 µM | > 100 µM | > 100 µM | > 100 µM | > 100 µM | > 100 µM | > 100 µM | > 100 µM | > 100 µM | > 100 µM | 80.7 µM | > 100 µM
O=C(NCc1ccco1)c1ccc(NC2=C(Cl)C(=O)N(Cc3ccccc3)C2=O)cc1 | 17.7 µM | 36 µM | 19.5 µM | 57.9 µM | 16.7 µM | 31.3 µM | 27.4 µM | 73.4 µM | 17.2 µM | 36.2 µM | 28.9 µM | 80.8 µM | 10.2 µM | 21.8 µM | 18.3 µM | 44.9 µM | 22.2 µM | 41 µM | 51.3 µM | > 100 µM
C=CN(C)S(C)(=O)=O | > 100 µM | > 100 µM | > 100 µM | > 100 µM | > 100 µM | > 100 µM | > 100 µM | > 100 µM | > 100 µM | > 100 µM | > 100 µM | > 100 µM | > 100 µM | > 100 µM | > 100 µM | > 100 µM | > 100 µM | > 100 µM | > 100 µM | > 100 µM
COc1cnc2c(c1)C(=O)c1c-2n(CCCNC(C)C)c(=O)c2cc(F)ccc12 | 0.284 µM | 2.54 µM | 0.0385 µM | 0.376 µM | 0.19 µM | 1.03 µM | 0.156 µM | 0.496 µM | 0.165 µM | 0.851 µM | 0.47 µM | 2.07 µM | 0.093 µM | 0.328 µM | 0.0788 µM | 0.397 µM | 0.245 µM | 0.703 µM | 0.301 µM | 1.7 µM
N#CS.N=C=S.N=C=S.[Cu+2].[NH2-].[NH2-].[NH2-].[NH2-].c1ccc2ncccc2c1 | > 100 µM | > 100 µM | 44.8 µM | > 100 µM | 21.3 µM | 41.8 µM | 17.8 µM | 38.7 µM | 31.5 µM | > 100 µM | > 100 µM | > 100 µM | > 100 µM | > 100 µM | 20.1 µM | 38.1 µM | > 100 µM | > 100 µM | 20.6 µM | 43.4 µM
CCS(=O)(=O)Nc1cccc(Nc2c3cccc(C)c3nc3c(C)cccc23)c1OC | 0.399 µM | 7.4 µM | 2.58 µM | 19.5 µM | 4.59 µM | 25 µM | 1.1 µM | 8.21 µM | 2.26 µM | > 31.2 µM | 2.46 µM | 38.5 µM | 0.793 µM | > 51.9 µM | 0.404 µM | 19.8 µM | 0.708 µM | 6.23 µM | 9.78 µM | > 75.8 µM
S=C(N/N=C(/c1ccccc1)c1ccccn1)N1CCCCCC1 | – | 1.97 µM | 1.28 µM | 3.48 µM and 1.13 µM | < 0.001 µM | 1.76 µM and 1.23 µM | 0.0199 µM | 0.138 µM and 1.17 µM | 0.0105 µM | 1.57 µM and 1.5 µM | – | 0.709 µM | < 0.001 µM | 1.43 µM and 1.38 µM | 0.00287 µM | 1.22 µM and 1.27 µM | 0.329 µM | 1.43 µM and 1.63 µM | – | 2.04 µM
CCCCCCCCCCCCCCCCOP(=O)(O)OP(=O)(O)OCC1OC(n2ccc(N)nc2=O)C(O)C1O (configuration not stated) | – | > 100 µM | > 100 µM | > 100 µM | – | > 100 µM | – | > 100 µM | – | > 100 µM | – | > 100 µM | – | > 100 µM | – | > 100 µM | – | > 100 µM | – | > 100 µM
CNC(=O)Oc1cc(C)c(/C=C/c2cncc(C(=O)NC)c2)c(C)c1 | 9.13 µM | > 25 µM | > 23.4 µM | > 25 µM | > 25 µM | > 25 µM | > 22.1 µM | > 25 µM | > 25 µM | > 25 µM | 24.7 µM | > 25 µM | > 25 µM | > 25 µM | > 25 µM | > 25 µM | > 21.6 µM | > 25 µM | > 25 µM | > 25 µM
CN(C)CCCNC(=O)c1cncnc1Nc1ccc(OCc2cccc(F)c2)c(Cl)c1 | 1.33 µM | 3.16 µM | 2 µM | 3.86 µM | 1.49 µM | 2.88 µM | 1.71 µM | 3.08 µM | 1.74 µM | 3.33 µM | 1.89 µM | 3.83 µM | 1.47 µM | 2.79 µM | 1.66 µM | 3.26 µM | 1.77 µM | 3.15 µM | 1.83 µM | 4.36 µM
CCN(CC)CCCC(C)N=c1cc(Nc2cc(=NC(C)CCCN(CC)CC)c3cc(OC)ccc3o2)oc2ccc(OC)cc12 (configuration not stated) | 0.513 µM | 3.15 µM | 1.04 µM | 2.15 µM | 1.29 µM | 2.92 µM | 0.731 µM | 1.39 µM | 1.62 µM | 5.63 µM | 0.872 µM | 1.67 µM | 0.683 µM | 1.81 µM | 1.15 µM | 3.4 µM | 0.803 µM | 1.5 µM | 0.723 µM | 1.71 µM
CC1(C)CCC(C)(C)c2c1ccc(O)c2Cc1c(O)ccc2c1C(C)(C)CCC2(C)C | – | 3.7 µM | – | 4.04 µM | – | 4.32 µM | – | 3.51 µM | – | 3.91 µM | – | 3.45 µM | – | 4.2 µM | – | 3.18 µM | – | 4.05 µM | – | 3.53 µM
NCCN1C(=O)C2C3c4ccccc4C(c4ccccc43)C2C1=O (configuration not stated) | – | > 100 µM | – | > 100 µM | – | > 100 µM | – | > 100 µM | – | > 100 µM | – | > 100 µM | – | > 100 µM | – | > 100 µM | – | > 100 µM | – | > 100 µM
O=c1c2c3c(sc2nc(N/N=C/c2ccc(Br)cc2)n1Cc1ccccc1)CCCC3 | 8.63 µM | > 100 µM | 7.21 µM | > 100 µM | 32.5 µM | > 100 µM | 5.88 µM | > 100 µM | > 100 µM | > 100 µM | > 100 µM | > 100 µM | 5.66 µM | > 100 µM | 7.83 µM | > 100 µM | 10.8 µM | > 100 µM | 9.67 µM | > 100 µM
CC(=O)Oc1cc2c(OC(C)=O)c(-c3c(C)cc4c(C(C)C)c(OC(C)=O)c(OC(C)=O)cc4c3OC(C)=O)c(C)cc2c(C(C)C)c1OC(C)=O | 1.27 µM and 7.69 µM and 5.33 µM | 4.11 µM and 18 µM and 16.7 µM | 5.15 µM and 1.52 µM and 5.49 µM | 10.5 µM and 3.23 µM and 11.5 µM | 4.6 µM and 6.15 µM and 8.52 µM | 13.1 µM and 11.5 µM and 21 µM | 17.4 µM and 4.66 µM and 7.79 µM | 33.2 µM and 9 µM and 17 µM | 4.83 µM and 5.02 µM and 9.12 µM | 10.6 µM and 10.2 µM and 21.3 µM | 5.23 µM and 2.58 µM and 8.39 µM | 14.4 µM and 10.5 µM and 25.6 µM | 6.22 µM and 6.63 µM and 7.46 µM | 14.3 µM and 15.9 µM and 14.4 µM | 4.84 µM and 4.85 µM and 9.43 µM | 9.38 µM and 24.7 µM and 35.7 µM | 6.52 µM and 5.37 µM and 12.5 µM | 12.5 µM and 10.5 µM and 31.3 µM | – | 32 µM and > 69.6 µM and > 84.2 µM
COc1cc(-c2ncn(/C=C\C(=O)OC(C)C)n2)cc(C(F)(F)F)c1 | 0.303 µM and 0.103 µM | 4.96 µM and 5.68 µM | 0.0286 µM and 0.0535 µM | 0.734 µM and 0.597 µM | 0.0406 µM and 0.0353 µM | 1.29 µM and 0.857 µM | 0.274 µM and 0.11 µM | 1.8 µM and 2.72 µM | 0.368 µM and 0.309 µM | 12.2 µM and 4.32 µM | 0.142 µM and 0.136 µM | 11.8 µM and 14.4 µM | 0.0528 µM and 0.0688 µM | 1.58 µM and 11.3 µM | 0.0335 µM and 0.0683 µM | 5.24 µM and 11.4 µM | 0.0146 µM and 0.018 µM | 0.225 µM and 0.187 µM | 0.0684 µM and 0.0407 µM | 4.18 µM and 9.49 µM
COc1ccc2c(c1OC)OCC(CN(C)C)C2=O (configuration not stated) | – | 11.3 µM | – | 0.472 µM | – | 48.5 µM | – | 31.6 µM | – | 33.9 µM | – | 30.8 µM | – | 31.4 µM | – | 34.1 µM | – | 36.7 µM | – | 60.5 µM
O=S(=O)(Nc1cc(Cl)ccc1Cl)c1ccc(-c2cnc(C3CC3)o2)cc1 | 1.21 µM | 8.42 µM | 1.75 µM | 39.2 µM | 0.512 µM | 14.8 µM | 3.36 µM | 21.8 µM | 0.704 µM | 24.4 µM | 15 µM | 56.4 µM | 0.453 µM | 15 µM | 2 µM | 68.2 µM | 1.24 µM | 10.2 µM | 11.8 µM | > 100 µM
COc1cc2c(cc1OC)C(=O)Cc1ccc(OC)c(OC)c1CN(C)CC2 | – | 98.5 µM | – | > 100 µM | – | > 100 µM | – | > 100 µM | – | > 100 µM | – | > 100 µM | – | > 100 µM | – | > 100 µM | – | > 100 µM | – | > 100 µM
